Where a name gives a salt, the structure may show the parent alone. Read-outs that look alike come from different tables or passages of the source.
Tests used:
[1] = test system: MLKL phosphorylation in HT29-L23 human colorectal adenocarcinoma cells; assay: MLKL Phosphorylation High-Content Assay; assay type: cell-based; conditions: 6 h, necroptosis induced with TNFα, SMAC mimetic and Z-VAD, read-out: pMLKL (IC50)
Method in brief: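 HT29-L23 cells were induced to necroptosis with TNFα (35 ng/mL), SMAC mimetic (700 nM) and Z-VAD (140 nM) for 6 h at 37 °C. Phospho-MLKL (S358) immunofluorescence was imaged and quantified per cell; maximal inhibition set by Nec-1s (6.25 μM), and IC50/Ymax from 4-parameter logistic fit.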

[2] = biological target: His-GST-TVMV-hRIPK1 (1-324) (Homo sapiens (Human), UniProt Q13546); assay: RIPK1 HTRF Binding Assay; conditions: read-out: RIPK1 HTRF (IC50); FRET probe displacement, 1 h at rt
His-GST-TVMV-hRIPK1 (1-324), sequence (Q13546 1-324): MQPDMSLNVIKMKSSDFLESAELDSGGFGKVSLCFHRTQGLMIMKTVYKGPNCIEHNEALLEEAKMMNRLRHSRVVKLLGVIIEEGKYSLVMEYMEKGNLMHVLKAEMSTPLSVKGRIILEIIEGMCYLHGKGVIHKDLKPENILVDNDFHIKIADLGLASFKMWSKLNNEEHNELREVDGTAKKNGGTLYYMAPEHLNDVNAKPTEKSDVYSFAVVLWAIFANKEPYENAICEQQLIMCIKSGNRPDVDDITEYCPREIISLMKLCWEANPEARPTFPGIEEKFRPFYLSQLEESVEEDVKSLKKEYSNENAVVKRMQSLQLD

| Compound | IC50 ([1]; Homo sapiens) [nM] | IC50 [2] [nM] | IC50 [1] [nM] |
| --- | --- | --- | --- |
| [2H]C([2H])([2H])Oc1ncc(-c2ccc3c(C(=O)NCC4CC4)n[nH]c3c2)cc1C(=O)NC(C)c1cccc(OC(F)(F)F)c1 (stereo not drawn) [Example 166, N-(cyclopropylmethyl)-6-[6-(deutero)methoxy-5-({1-[3-(tri-fluoromethoxy)phenyl]ethyl}-carbamoyl)pyridin-3-yl]-1H-indazole-3-carboxamide] | 34 | 83 |  |
| CNC(=O)c1n[nH]c2cc(-c3cnc(C)c(C(=O)NCc4cc(F)ccc4OC4CCCC4)c3)ccc12 [Example 157, 6-[5-({[2-(cyclopentyloxy)-5-fluoro-phenyl]methyl}carbamoyl)-6-methylpyridin-3-yl]-N-methyl-1H-indazole-3-carboxamide, TFA] | 6.8 | 2.1 |  |
| CCCNC(=O)c1n[nH]c2cc(-c3cnc(OC)c(C(=O)NCc4ccccc4OC(F)(F)F)c3)ccc12 [Example 176, 6-[6-methoxy-5-({[2-(trifluoro-methoxy)phenyl]methyl}carbam-oyl)pyridin-3-yl]-N-propyl-1H-indazole-3-carboxamide] | 16 | 10 |  |
| [2H]C([2H])([2H])NC(=O)c1n[nH]c2cc(-c3cnc(OC)c(C(=O)NC(C)c4ccccc4OC(F)(F)F)c3)ccc12 (stereo not drawn) [Example 152, 6-[6-methoxy-5-({1-[2-(tri-fluoromethoxy)phenyl]ethyl}-carbamoyl)pyridin-3-yl]-N-(deutero)methyl-1H-indazole-3-carboxamide] | 3.3 | 20 |  |
| CNC(=O)c1n[nH]c2cc(-c3cnc(OC)c(C(=O)NCC(O)COc4ccccc4)c3)ccc12 (stereo not drawn) [Example 56, 6-{5-[(2-hydroxy-3-phenoxy-propyl)carbamoyl]-6-meth-oxypyridin-3-yl}-N-methyl-1H-indazole-3-carboxamide] | 26 | 8.4 |  |
| CNC(=O)c1n[nH]c2cc(-c3cnc(OC)c(C(=O)NCCCOc4ccccc4)c3)ccc12 [Example 55, 6-{6-methoxy-5-[(3-phenoxy-propyl)carbamoyl]pyridin-3-yl}-N-methyl-1H-indazole-3-carboxamide] | 27 | 12 |  |
| [2H]C([2H])([2H])Oc1ncc(-c2ccc3c(C(=O)NC)n[nH]c3c2)cc1C(=O)N[C@H](C)c1cccc(C(F)(F)F)c1 [Example 34, 6-[6-(deutero)methoxy-5-{[(1R)-1-[3-(trifluoromethyl)phenyl]-ethyl]carbamoyl}pyridin-3-yl]-N-methyl-1H-indazole-3-carbox-amide] | 92 | 57 |  |
| CNC(=O)c1n[nH]c2cc(-c3cnc(OC)c(C(=O)NCc4cc(OC(F)(F)F)ccc4F)c3)ccc12 [Example 137] |  | 1.6 | 2.9 |
| CNC(=O)c1n[nH]c2cc(-c3cnc(OC)c(C(=O)NC4CCCC(NC(=O)C(C)(C)C)C4)c3)ccc12 (single isomer, unassigned) [Example 17, 6-(6-methoxy-5-((3-pivalamidocyclohexyl)carbamoyl)pyridin-3-yl)-N-methyl-1H-indazole-3-carboxamide] | 19 | 21 |  |
| COc1ncc(-c2ccc3c(C(=O)NCCO)n[nH]c3c2)cc1C(=O)NCc1ccccc1OC(F)(F)F [Example 182, N-(2-hydroxyethyl)-6-[6-meth-oxy-5-({[2-(trifluoromethoxy)-phenyl]methyl}carbamoyl)-pyridin-3-yl]-1H-indazole-3-carboxamide] | 83 | 12 |  |
| CNC(=O)c1n[nH]c2cc(-c3cnc(OC)c(C(=O)NCc4ccccc4C#N)c3)ccc12 [Example 84, 6-(5-{[(2-cyanophenyl)methyl]-carbamoyl}-6-methoxypyridin-3-yl)-N-methyl-1H-indazole-3-carboxamide] | 180 | 45 |  |
| CNC(=O)c1n[nH]c2cc(-c3cnc(OC)c(C(=O)NCc4ccccc4OC4CCC(C)C4)c3)ccc12 (stereo not drawn) [Example 131, 6-{6-methoxy-5-[({2-[(3-methylcyclopentyl)oxy]-phenyl}methyl)carbamoyl]-pyridin-3-yl}-N-methyl-1H-indazole-3-carboxamide] | 2.3 | 10 |  |
| CNC(=O)c1n[nH]c2cc(-c3cnc(OC)c(C(=O)NCc4ccccc4OCC(F)(F)F)c3)ccc12 [Example 75, 6-[6-methoxy-5-({[2-(2,2,2-trifluoroethoxy)phenyl]-methyl}carbamoyl)pyridin-3-yl]-N-methyl-1H-indazole-3-carboxamide, TFA] |  | 1.8 | 4.4 |
| CNC(=O)c1n[nH]c2cc(-c3cnc(C)c(C(=O)NC(C)c4cccc(OC(F)(F)F)c4)c3)ccc12 (single isomer, unassigned) [Example 156, N-methyl-6-[6-methyl-5-({1-[3-(tri-fluoromethoxy)phenyl]ethyl}car-bamoyl)pyridin-3-yl]-1H-indazole-3-carboxamide] |  | 3.7 | 7.9 |
| CNC(=O)c1n[nH]c2cc(-c3cnc(OC)c(C(=O)NCc4ccccc4OC4CCCCC4)c3)ccc12 [Example 113, 6-[5-({[2-(cyclohexyloxy)-phenyl]methyl}carbamoyl)-6-methoxypyridin-3-yl]-N-methyl-1H-indazole-3-carbox-amide] |  | 27 | 9.7 |
| CNC(=O)c1n[nH]c2cc(-c3cnc(OC)c(C(=O)NCc4cc(C(F)(F)F)ccn4)c3)ccc12 [Example 143, 6-[6-methoxy-5-({[4-(trifluoro-methyl)pyridin-2-yl]methyl}-carbamoyl)pyridin-3-yl]-N-methyl-1H-indazole-3-carboxamide] | 26 | 28 |  |
| [2H]C([2H])([2H])Oc1ncc(-c2ccc3c(C(=O)NC4CC4)n[nH]c3c2)cc1C(=O)N[C@@H]1CN(C(=O)C2CC(F)(F)C2)C[C@@H]1F [Example 190, N-cyclopropyl-6-(5-{[(3R,4S)-1-(3,3-difluorocyclobutanecarbonyl)-4-fluoropyrrolidin-3-yl]carbamoyl}-6-(deutero)methoxypyridin-3-yl)-1H-indazole-3-carboxamide] | 290 | 100 |  |
| CNC(=O)c1n[nH]c2cc(-c3cnc(OC)c(C(=O)NCc4cc(F)ccc4OC(C)C)c3)ccc12 [Example 130, 6-[5-({[5-fluoro-2-(propan-2-yloxy)phenyl]methyl}carbam-oyl)-6-methoxy-pyridin-3-yl]-N-methyl-1H-indazole-3-carboxamide] |  | 1.9 | 3.9 |
| [2H]C([2H])([2H])Oc1ncc(-c2ccc3c(C(=O)NC)n[nH]c3c2)cc1C(=O)NCC[C@H](O)c1ccc(Cl)cc1 [Example 27, 6-(5-{[(3S)-3-(4-chlorophenyl)-3-hydroxypropyl]carbamoyl}-6-(deutero)methoxypyridin-3-yl)-N-methyl-1H-indazole-3-carbox-amide, TFA] | 8 | 2.5 |  |
| [2H]C([2H])([2H])C([2H])([2H])NC(=O)c1n[nH]c2cc(-c3cnc(OC)c(C(=O)NCc4ccccc4OC(F)(F)F)c3)ccc12 [Example 183, N-[(1,1,2,2,2-deutero)ethyl]-6-[6-methoxy-5-({[2-(trifluoro-methoxy)phenyl]methyl}carbam-oyl)pyridin-3-yl]-1H-indazole-3-carboxamide] | 15 | 5.9 |  |
| CCNC(=O)c1n[nH]c2cc(-c3cnc(OC)c(C(=O)N[C@H](C)c4cc(C(F)(F)F)ccc4F)c3)ccc12 [Example 234, N-[(1,1,2,2,2-deutero)ethyl]-6-(5-{[(1R)-1-[2-fluoro-5-(trifluorometh-yl)phenyl](2,2,2-deutero)ethyl]-carbamoyl}-6-(deutero)methoxy-pyridin-3-yl)-1H-indazole-3-carbox-amide] |  | 8.7 | 20 |
| [2H]C([2H])([2H])NC(=O)c1n[nH]c2cc(-c3cnc(OC([2H])([2H])[2H])c(C(=O)NC(C)c4cc(F)ccc4C(F)(F)F)c3)ccc12 (stereo not drawn) [Example 212] | 28 | 15 |  |
| CNC(=O)c1n[nH]c2cc(-c3cnc(OC)c(C(=O)NCC4(COc5ccccc5)CC4)c3)ccc12 [Example 68, 6-[6-methoxy-5-({[1-(phenoxy-methyl)cyclopropyl]methyl}-carbamoyl)-pyridin-3-yl]-N-methyl-1H-indazole-3-carbox-amide] |  | 4.6 | 28 |
| CNC(=O)c1n[nH]c2cc(-c3cnc(OC)c(C(=O)NCC4CCCOC4C(C)(C)C)c3)ccc12 (stereo not drawn) [Example 83, 6-(5-{[(2-tert-butyloxan-3-yl)-methyl]carbamoyl}-6-methoxy-pyridin-3-yl)-N-methyl-1H-indazole-3-carboxamide] | 47 | 7.6 |  |
| CNC(=O)c1n[nH]c2cc(-c3cnc(OC)c(C(=O)NCc4cccc(OC(F)(F)F)c4F)c3)ccc12 [Example 119, 6-[5-({[2-fluoro-3-(trifluoro-methoxy)phenyl]methyl}-carbamoyl)-6-methoxy-pyridin-3-yl]-N-methyl-1H-indazole-3-carboxamide] | 110 | 33 |  |
| [2H]C([2H])([2H])NC(=O)c1n[nH]c2cc(-c3cnc(OC([2H])([2H])[2H])c(C(=O)N[C@@H](C)c4cccc(C(F)(F)F)c4)c3)ccc12 [Example 214, 6-[6-(deutero)methoxy-5-{[(1S)-1-[3-(trifluoromethyl)phenyl]ethyl]carbam-oyl}pyridin-3-yl]-N-(deutero)methyl-1H-indazole-3-carboxamide] | 36 | 9.8 |  |
| CCN(CC1CCC1)C(=O)C1CCCC(NC(=O)c2cc(-c3ccc4c(C(=O)NC)n[nH]c4c3)cnc2OC)C1 (stereo not drawn) [Example 124, 6-[5-({3-[(cyclobutylmethyl)-(ethyl)carbamoyl]cyclohexyl}-carbamoyl)-6-methoxypyridin-3-yl]-N-methyl-1H-indazole-3-carboxamide] | 83 | 26 |  |

Source: patent US12172975B2, “1H-indazole carboxamides as receptor-interacting protein kinase 1 inhibitors (RIPK1)” (BRISTOL-MYERS SQUIBB COMPANY, priority 2018, dated 2024)
